Reference: patent publication US20060178342A1, “Hyaluronan as a cytotoxic agent, drug pre-sensitizer and chemo-sensitizer in the treatment of disease” (priority 2001, published 2006)

Tests used:
[1] = test system: MDA-MB-231; experiment: Breast cancer cell count assay (Coulter counter), HA ± adriamycin; format: cell-based, human
Experimental: (§1) Cell lines MDA-MB-468, MDA-MB-435 and MDA-MB-231 were routinely grown and subcultured as a monolayer in 175 cm^2 culture flasks in Leibovitz L-15 Medium supplemented with 10% Foetal calf serum (FCS) and antibiotic/antimycotic reagents at 37° C. in humidity controlled incubator with 100% (v/v) air.
(§2) For the tests, MDA MB-468, MDA MB-231 and MDA MB-435 cell line were grown in 90% Leibovitz L-15 medium supplemented with 10% FCS. When confluent the cultures were washed 1× in HBSS and trypsinised in 0.25% trypsin/0.05% EDTA. The cell suspensions were counted with an automated cell counter (ZM-2 Coulter Counter) by adding 15 mL saline+0.2 ml of cell suspension. • Cells were resuspended to a number of:
(§3) The cells were plated into 48-well plates (1 cm^2 surface area) by adding 1 ml of cell suspension per well. • Cells were allowed to attach for 24 h, before the media was removed, monolayers washed. The test media was; growth media containing 0-1 μM adriamycin or 5-fluorouracil with or without the addition of 0-1 μM of HA (modal Mw 750,000).
(§4) The cells were exposed to the several combinations of HA and drugs for different times and at different concentrations (Table 3).
(§5) After the incubation and growth periods the cell monolayers were washed with HBSS and trypsinised in 0.25% trypsin/0.05% EDTA. The cell suspensions were counted with an automated cell counter (ZM-2 Coulter Counter) by adding 15 mL saline+0.2 ml of cell suspension. Results were expressed as % of no drug control which was calculated as: […]

[2] = test system: MDA-MB-435; experiment: as above; format: cell-based, human
Experimental: as §1, §2, §3, §4, §5

[3] = test system: MDA-MB-468; experiment: as above; format: cell-based, human
Experimental: as §1, §2, §3, §4, §5

[4] = test system: MDA-MB 468 Breast cancer xenografts; experiment: HA alone on breast cancer xenografts, metastasis, body mass and survival; format: in vivo; settings: 12.5 mg/kg HA, three regimens; significant in 3/3 experiments
Experimental: To determine the effect of HA on tumor volume in vivo, 12.5 mg/kg of HA was administered on day 1 and 2 of a 7 day cycle for 6 cycles and 12.5 mg/kg on day 1 and 3 of 7 day cycle for 6 cycles (FIG. 9A) or 12.5 mg/kg on day 1 and 8 of 28 day cycle for 6 cycles (FIG. 9B). […] This anti-proliferative effect could be due to the degradation of the HA into apoptotic-inducing fragments and/or the microembolisation effect, which could result in tissue hypoxia and subsequent cell death.
The following table sets forth the results of the administration of HA on breast and colon cancer xenographs, metastasis, body mass and survival in vivo.

[5] = test system: human breast cancer cells; experiment: Breast cancer cell count assay, cell line not specified or pooled; format: cell-based; settings: HA incubated 30 min, 1 h, 24 h or 3 days
Experimental: The cell suspensions were counted with an automated cell counter (ZM-2 Coulter Counter) by adding 15 mL saline+0.2 ml of cell suspension. • Cells were resuspended to a number of: […] The cell suspensions were counted with an automated cell counter (ZM-2 Coulter Counter) by adding 15 mL saline+0.2 ml of cell suspension. Results were expressed as % of no drug control which was calculated as: […]

[6] = test system: SK-CO-1; experiment: Effect of HA on cell proliferation; format: cell-based, human; settings: 3 days constant exposure, 100 nM
Experimental: (§6) The effect of HA on the proliferation of human breast and colon cancer cell lines was determined according to the methods set forth in the Table 11.

[7] = test system: SW620; experiment: Effect of HA on cell proliferation; format: cell-based, human; settings: 3 days constant exposure, 100 nM
Experimental: as §6

[8] = test system: MDA MB 468; experiment: Effect of HA on cell proliferation; format: cell-based, human
Experimental: as §6

[9] = test system: SW1222; experiment: Effect of HA on cell proliferation; format: cell-based, human; settings: 3 days constant exposure, 100 nM
Experimental: as §6

[10] = test system: ZR-75-1; experiment: Effect of HA on cell proliferation; format: cell-based, human; settings: 3 days constant exposure
Experimental: as §6

[11] = test system: LIM 2099; experiment: Effect of HA on cell proliferation; format: cell-based, human; settings: 3 days constant exposure, 100 nM
Experimental: as §6

[12] = test system: MDA MB 435; experiment: Effect of HA on cell proliferation; format: cell-based, human
Experimental: as §6

[13] = test system: MDA MB 231; experiment: Effect of HA on cell proliferation; format: cell-based, human
Experimental: as §6

[14] = test system: LIM 1215; experiment: Effect of HA on cell proliferation; format: cell-based, human; settings: 3 days constant exposure, 100 nM
Experimental: as §6

[15] = test system: HCT-116; experiment: Effect of HA on cell proliferation; format: cell-based, human; settings: 3 days constant exposure, 100 nM
Experimental: as §6

[16] = test system: HT-29; experiment: Effect of HA on cell proliferation; format: cell-based, human; settings: 3 days constant exposure, 100 nM
Experimental: as §6

[17] = 24 H HA followed by growth for 3 days, 100 nM
[18] = 30 min HA followed by growth for 3 days, 100 nM
[19] = 3 days constant exposure, 100 nM
[20] = 3 days constant exposure, 500 nM
[21] = 3 days constant exposure, 10 μM

Substance: hyaluronan [HA]
- Cytotoxic effect of HA, change in cell number ([1]; HA exposure 30 min 100 nM): −27%
- Cytotoxic effect of HA, change in cell number ([1]; HA exposure 30 min 1000 nM): −26%
- Cytotoxic effect of HA, change in cell number ([1]; HA exposure 1 h 100 nM): −21%
- Cytotoxic effect of HA, change in cell number ([1]; HA exposure 24 h 100 nM): −8%
- Cytotoxic effect of HA, change in cell number ([1]; HA exposure 3 days 100 nM): −23%
- Cytotoxic effect of HA, change in cell number ([2]; HA exposure 30 min 100 nM): −12%
- Cytotoxic effect of HA, change in cell number ([2]; HA exposure 30 min 500 nM): 0
- Cytotoxic effect of HA, change in cell number ([2]; HA exposure 1 h 100 nM): −4%
- Cytotoxic effect of HA, change in cell number ([2]; HA exposure 24 h 100 nM): −12%
- Cytotoxic effect of HA, change in cell number ([2]; HA exposure 3 days 100 nM): −22%
- Cytotoxic effect of HA, change in cell number ([3]; HA exposure 30 min 100 nM): −5%
- Cytotoxic effect of HA, change in cell number ([3]; HA exposure 30 min 500 nM): −22%
- Cytotoxic effect of HA, change in cell number ([3]; HA exposure 30 min 1000 nM): +2%
- Cytotoxic effect of HA, change in cell number ([3]; HA exposure 1 h 100 nM): +3%
- Cytotoxic effect of HA, change in cell number ([3]; HA exposure 24 h 100 nM): −5%
- Cytotoxic effect of HA, change in cell number ([3]; HA exposure 3 days 100 nM): −29%
- % T/C versus saline [4]: lower % T/C
- reduction in breast cancer cell number [5]: 0-29%
- Effect of HA on cell proliferation (mean ± standard deviation) [6]: 95 ± 3 (n = 8) % of untreated control
- Effect of HA on cell proliferation (mean ± standard deviation) [7]: 97 ± 1 (n = 8) % of untreated control
- Effect of HA on cell proliferation (mean ± standard deviation) [8, 17]: 84 ± 1 (n = 4) % of untreated control
- Effect of HA on cell proliferation (mean ± standard deviation) [8, 18]: 97 ± 15 (n = 12) % of untreated control
- Effect of HA on cell proliferation (mean ± standard deviation) [8, 19]: 99 ± 6 (n = 20) % of untreated control
- Effect of HA on cell proliferation (mean ± standard deviation) [8, 20]: 95 ± 3 (n = 8) % of untreated control
- Effect of HA on cell proliferation (mean ± standard deviation) [8, 21]: 99 ± 6 (n = 20) % of untreated control
- Effect of HA on cell proliferation (mean ± standard deviation) [9]: 99 ± 1 (n = 8) % of untreated control
- Effect of HA on cell proliferation (mean ± standard deviation) ([10]; 100 nM): 103 ± 4 (n = 20) % of untreated control
- Effect of HA on cell proliferation (mean ± standard deviation) ([10]; 500 nM): 102 ± 1 (n = 8) % of untreated control
- Effect of HA on cell proliferation (mean ± standard deviation) ([10]; 10 μM): 100 ± 3 (n = 8) % of untreated control
- Effect of HA on cell proliferation (mean ± standard deviation) [11]: 105 ± 2 (n = 16) % of untreated control
- Effect of HA on cell proliferation (mean ± standard deviation) [12, 17]: 111 ± 6 (n = 8) % of untreated control
- Effect of HA on cell proliferation (mean ± standard deviation) [12, 18]: 86 ± 6 (n = 12) % of untreated control
- Effect of HA on cell proliferation (mean ± standard deviation) [12, 19]: 85 ± 17 (n = 16) % of untreated control
- Effect of HA on cell proliferation (mean ± standard deviation) [12, 20]: 55 ± 6 (n = 8) % of untreated control
- Effect of HA on cell proliferation (mean ± standard deviation) [12, 21]: 101 ± 1(n = 8) % of untreated control
- Effect of HA on cell proliferation (mean ± standard deviation) [13, 18]: 86 ± 3 (n = 8) % of untreated control
- Effect of HA on cell proliferation (mean ± standard deviation) [13, 19]: 106 ± 11 (n = 20) % of untreated control
- Effect of HA on cell proliferation (mean ± standard deviation) [13, 20]: 100 ± 1 (n = 8) % of untreated control
- Effect of HA on cell proliferation (mean ± standard deviation) [13, 21]: 101 ± 5 (n = 8) % of untreated control
- Effect of HA on cell proliferation (mean ± standard deviation) [14]: 89 ± 5 (n = 8) % of untreated control
- Effect of HA on cell proliferation (mean ± standard deviation) [15]: 92 ± 0 (n = 8) % of untreated control
- Effect of HA on cell proliferation (mean ± standard deviation) [16]: 82 ± 14 (n = 8) % of untreated control
